In patent publication US20230414644A1, “ORAL CANINE FEED AND METHODS FOR CONTROLLING FLEA INFESTATIONS IN A CANINE” (In the Bowl Animal Health, Inc., priority 2021, published 2023):

System: Ctenocephalides felis
Test: Efficacy of spinosyn administered per os (liquid formulation, daily) to dogs against experimental flea infestation, comb counts of live adult fleas
Type: in vivo
Settings: for percent reduction in live adult flea counts: day 14 comb count; for Efficacy (percent reduction in live adult flea counts): day 37, after the five day wash out period
Source text: Efficacy of Spinosyn Administered Per Os, i.e. by Mouth, to Dogs for the Treatment and Control of Ctenocephalides felis.
Methods: A pool of 40 dogs are to be preliminarily infested with ˜100 unfed adult C. felis in order to produce a pool of dogs that can suitably sustain a reliable infestation rate of approximately 50% of live fleas over a 48-hour period. The dogs with the highest live flea counts are to be randomly allocated to 4 treatment groups (6 dogs per group) based on their pre-treatment flea counts from experimental infestations. The first treatment group is to be the control group and groups 2-4 are to be the test groups.
The dogs are to be housed individually during the study period and are to be fed a commercial dry dog food ration with ad libitum access to water.
Dogs in the control group are not to receive a spinosyn or any other flea control treatment. Each dog in test groups 2-4 is to be offered its daily ration (dry food) and the individual doses of liquid formulation are to be administered after the individual dog has eaten at least 25% of its total daily ration. After receiving the dose of a spinosyn the dogs are to be allowed to continue eating. This mimics incorporating the spinosyn in feed. Each dog in test groups 2-4 and the control group is to be experimentally infested with 100 unfed adult fleas on test days −1, 5, 12, 19, 28 and 35. Comb counts for live adult fleas are to be conducted on days 2, 7, 14, 21, 30 and 37. The final experimental infestation is to occur five days after the last daily dose of spinosyn.

## spinosad
0.25 mg/kg daily oral (Group 2)
  percent reduction in live adult flea counts: 100%
0.50 mg/kg daily oral (Group 3)
  percent reduction in live adult flea counts: 100%
0.50 mg/kg daily oral days 0-29 (Group 3)
  Efficacy (percent reduction in live adult flea counts): over 98%
1.0 mg/kg daily oral (Group 4)
  percent reduction in live adult flea counts: 100%
1.0 mg/kg daily oral days 0-29 (Group 4)
  Efficacy (percent reduction in live adult flea counts): over 98%
